Source: PubChem BioAssay (NCI)
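How tested: cells in 96-well plates exposed to compound for 48 hours at five concentrations. GI50 is the concentration that inhibits growth by half. TGI denotes the concentration required for complete inhibition of growth.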

Tests used:
Assay in all cases: NCI-60 cell line screen, 48 h
OVCAR-3 ovarian = tested on: OVCAR-3 ovarian
CCRF-CEM leukemia = tested on: CCRF-CEM leukemia
MOLT-4 leukemia = tested on: MOLT-4 leukemia
HOP-92 NSCLC = tested on: HOP-92 NSCLC
MALME-3M melanoma = tested on: MALME-3M melanoma
KM12 colon = tested on: KM12 colon
HCT-15 colon = tested on: HCT-15 colon
RXF 393 renal = tested on: RXF 393 renal
CAKI-1 renal = tested on: CAKI-1 renal
SF-295 CNS = tested on: SF-295 CNS

| Structure (SMILES) | GI50 (OVCAR-3 ovarian) [µM] | TGI (OVCAR-3 ovarian) [µM] | GI50 (CCRF-CEM leukemia) [µM] | TGI (CCRF-CEM leukemia) [µM] | GI50 (MOLT-4 leukemia) [µM] | TGI (MOLT-4 leukemia) [µM] | GI50 (HOP-92 NSCLC) [µM] | TGI (HOP-92 NSCLC) [µM] | GI50 (MALME-3M melanoma) [µM] | TGI (MALME-3M melanoma) [µM] | GI50 (KM12 colon) [µM] | TGI (KM12 colon) [µM] | GI50 (HCT-15 colon) [µM] | TGI (HCT-15 colon) [µM] | GI50 (RXF 393 renal) [µM] | TGI (RXF 393 renal) [µM] | GI50 (CAKI-1 renal) [µM] | TGI (CAKI-1 renal) [µM] | GI50 (SF-295 CNS) [µM] | TGI (SF-295 CNS) [µM] |
| --- | --- | --- | --- | --- | --- | --- | --- | --- | --- | --- | --- | --- | --- | --- | --- | --- | --- | --- | --- | --- |
| C=CC(=O)N1CCN(c2ncnc3c(F)c(-c4c(O)cccc4F)c(Cl)cc23)CC1 | 9.02 | 23.5 | 9.79 | > 100 | 7.04 | 56.9 | 12.8 | 33.6 | 11.5 | 24.8 | 11.7 | 28 | 10 | 27 | 2.27 | 14.7 | 12.6 | 25.8 | 15.2 | 35.3 |
| C[C@H]1CCC/C=C/[C@@H]2C[C@H](N)C[C@H]2[C@H](O)/C=C/C(=O)O1 | > 100 | > 100 | 83.2 | > 100 | 77.3 | > 100 | > 100 | > 100 | 52.8 | > 100 | 71.4 | > 100 | > 100 | > 100 | > 100 | > 100 | > 100 | > 100 | > 100 | > 100 |
| Cn1c(N)nc2c(nc(OCc3ccccc3)n2C2OC(CO)C(O)C2O)c1=O (stereo not drawn) |  | > 100 |  | > 100 |  | > 100 |  | > 100 |  | > 100 |  | > 100 |  |  |  | > 100 |  | > 100 |  | > 100 |
| N#Cc1c(N)c(C(=O)O)nn(-c2cccc(C(F)(F)F)c2)c1=O |  | > 100 |  | > 100 |  | > 100 |  | > 100 |  | > 100 |  | > 100 |  | > 100 |  | > 100 |  | > 100 |  | > 100 |
| CCCCCCNc1nc(NCCCCCC)c2[nH]c(NCCCCCC)nc2n1 | 2.1 | 9.44 | 4.95 | 35.6 | 3.12 | 35.4 | 5.43 | 16.9 | 4.5 | 16.1 | 8.01 | 21.1 | 10.7 | > 51.7 | 4.23 | 17.5 | 16.2 | 50.9 | 12.8 | 31.3 |
| Cc1ccc([N+](=O)[O-])c2c(NCCCN(C)C)ccnc12 |  | > 93.1 |  | > 100 |  | > 100 |  | > 100 |  | 44.8 |  | > 100 |  | > 100 |  | > 100 |  | > 100 |  | > 100 |
| COc1ccc(C2C(C#N)=C(N)OC3=C2CCCc2ccc(F)cc23)cc1OC (stereo not drawn) | 19.3 | 46.2 |  | 0.0686 | > 38.2 | > 66.9 | 17.1 | 42.4 | 18.5 | 40 | 19.1 | 43.6 | 17.8 | 38 | 18.7 | 45.7 | 34.2 | 65.3 | 33.2 | > 57.3 |
| O=P(O)(O)C(O)(Cn1ccnc1)P(=O)(O)O | > 66.1 | > 100 | > 100 | > 100 | > 100 | > 100 | > 41.7 | > 100 | > 54.1 | > 100 | > 79.3 | > 100 | > 100 | > 100 | > 70.5 | > 100 | > 52.9 | > 100 | > 100 | > 100 |
| O=C1N[C@@H](O)[C@@H]2ON=C(c3ccccc3)[C@H]12 |  | > 100 |  | > 100 |  | > 100 |  | > 100 |  | > 100 |  | > 100 |  | > 100 |  | > 100 |  | > 100 |  | > 100 |
| CC(=O)n1c(-c2ccc(Cl)cc2)nc2c(c1=O)C(c1ccc(Cl)cc1)c1sc3c(Cl)cccc3c1O2 (stereo not drawn) | 0.402 | 1.5 | 0.383 | 4.12 | 0.409 | 2.54 | 1.27 | 4.61 | 0.669 | 2.5 | 0.433 | 1.78 | 0.418 | 1.74 | 0.251 | 0.85 | 0.488 | 3.03 | 0.31 | 1.24 |
| CN(C)C(=S)/N=c1\ss/c(=N\S(=O)(=O)c2ccccc2)n1-c1ccccc1 |  | > 100 |  | > 100 |  | > 100 |  | 67 |  | > 100 |  | > 100 |  | > 100 |  | > 100 |  | > 100 |  | > 100 |
| CC1(C)CCc2cc3c(cc2O1)OCCC3=O |  | > 100 |  | > 100 |  | > 100 |  | > 100 |  | > 100 |  | > 100 |  | > 100 |  | > 100 |  | > 100 |  | > 100 |
| COc1cc(/C=C/C(=N\NC(=O)c2ccccc2)c2sc(Nc3ccc(Cl)c(Cl)c3)nc2C)ccc1O |  | 76.6 |  | > 100 |  | 66.6 |  | 16.3 |  | 70.6 |  | > 100 |  | > 100 |  | > 100 |  | > 100 |  | > 100 |
| CC(C)(C)C1(O)Cc2ccccc2C(=O)O1 (stereo not drawn) |  | > 100 |  | > 100 |  | > 100 |  | > 100 |  | > 100 |  | > 100 |  | > 100 |  | > 100 |  | > 100 |  | > 100 |
| CCN(Cc1c(F)cccc1F)c1ccc(CO)c(Cl)c1 | 0.0634 | 0.317 | 25.7 | 98.5 | 22.1 | 71.7 | 0.162 | 0.988 | 17.5 | 36.6 | 11.4 | 26.8 | 9.04 | 48.8 | 1.14 | 24.2 | 0.167 | 1.77 | 0.108 | 28 |
| CC(=O)[CH-]C(C)=O.CC(=O)[CH-]C(C)=O.N=CC=N.[Sn+2] | 2.86 | 9.13 | 1.51 | 13.3 | 2.03 | 7.47 | 1.74 | 3.79 | 2.02 | 4.24 | 2.94 | 8.49 | 2.7 | 7.14 | 1.53 | 3.34 | 2.54 | 7.23 | 10.4 | 23.3 |
